In patent publication US5972947A, “Oxazolidinone derivatives, processes for the production thereof and pharmaceutical agents containing these compounds” (Roche Diagnostics GmbH, priority 1995, dated 1999):

Molecular target: GpIIb/IIIa receptor (Homo sapiens, UniProt P05106+P08514)
Assay: GpIIb/IIIa fibrinogen ELISA (inhibition of the fibrinogen-GpIIb/IIIa interaction)
Type: binding
Details: isolated activated GpIIb/IIIa receptor coated at 2 μg/ml; fibrinogen ligand, 1 hour incubation; OD at 405 nm
Protocol: Microtitre plates were coated overnight with 2 μg/ml isolated activated GpIIb/IIIa receptor. After the unbound receptor had been removed by several washing steps, the surface of the plate was blocked with 1% casein and washed again. The test substance was added at the necessary concentrations, the plates were subsequently incubated for 10 minutes while shaking in a linear shaker. The natural ligand of the GpIIb/IIIa receptor fibrinogen was added thereto. After incubating for 1 hour, unbound fibrinogen was removed by several washing steps and bound fibrinogen was determined in an ELISA reader by determining the change in optical density at 405 nm caused by a peroxidase conjugated monoclonal antibody. Inhibition of the fibrinogen-GpIIb/IIIa interaction leads to low optical densities. The IC50 value was determined by means of a concentration-effect curve.
The GpIIb/IIIa fibrinogen ELISA is a modification of the assay which is described in the following references:
Nachman, R. L. & Leung, L. L. K. (1982): Complex formation of platelet membrane glycoproteins IIb and IIIa with fibrinogen. J. Clin. Invest. 69: 263-269.
Wright, P. S. et al. […]; An echistatin C-terminal peptide activated GpIIb/IIIa binding to fibrinogen, fibronectin, vitronectin and collagen type I and type IV. Biochem. J. 293: 262-267.

Chain of GpIIb/IIIa receptor (P08514 32-887 limits assumed): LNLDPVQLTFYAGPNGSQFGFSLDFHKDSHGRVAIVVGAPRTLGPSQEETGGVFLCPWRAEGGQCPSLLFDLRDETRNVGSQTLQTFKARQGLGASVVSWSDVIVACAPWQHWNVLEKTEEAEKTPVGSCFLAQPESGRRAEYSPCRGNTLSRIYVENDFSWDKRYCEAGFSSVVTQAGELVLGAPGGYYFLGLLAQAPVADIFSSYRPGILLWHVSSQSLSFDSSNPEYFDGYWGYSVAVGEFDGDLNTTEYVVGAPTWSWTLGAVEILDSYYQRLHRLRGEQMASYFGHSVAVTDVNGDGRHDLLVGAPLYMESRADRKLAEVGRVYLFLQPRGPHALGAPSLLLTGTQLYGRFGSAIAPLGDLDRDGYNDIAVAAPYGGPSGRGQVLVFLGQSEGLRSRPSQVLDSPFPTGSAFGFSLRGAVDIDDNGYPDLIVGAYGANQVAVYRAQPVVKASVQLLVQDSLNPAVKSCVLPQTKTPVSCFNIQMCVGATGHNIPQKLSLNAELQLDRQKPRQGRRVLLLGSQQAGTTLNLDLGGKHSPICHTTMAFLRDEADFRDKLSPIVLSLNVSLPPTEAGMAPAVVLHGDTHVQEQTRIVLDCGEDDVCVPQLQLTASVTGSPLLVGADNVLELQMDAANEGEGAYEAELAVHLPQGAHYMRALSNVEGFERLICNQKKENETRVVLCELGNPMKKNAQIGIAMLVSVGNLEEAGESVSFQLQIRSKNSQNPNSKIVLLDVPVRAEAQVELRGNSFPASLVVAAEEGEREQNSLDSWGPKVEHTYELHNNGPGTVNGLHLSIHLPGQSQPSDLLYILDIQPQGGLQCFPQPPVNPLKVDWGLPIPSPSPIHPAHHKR
Chain of GpIIb/IIIa receptor (P08514 891-1039 partner limits assumed): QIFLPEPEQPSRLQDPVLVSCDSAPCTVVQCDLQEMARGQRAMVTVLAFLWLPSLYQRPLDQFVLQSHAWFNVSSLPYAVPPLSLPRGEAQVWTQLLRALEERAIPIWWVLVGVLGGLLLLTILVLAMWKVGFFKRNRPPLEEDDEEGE
Chain of GpIIb/IIIa receptor (P05106 27-788): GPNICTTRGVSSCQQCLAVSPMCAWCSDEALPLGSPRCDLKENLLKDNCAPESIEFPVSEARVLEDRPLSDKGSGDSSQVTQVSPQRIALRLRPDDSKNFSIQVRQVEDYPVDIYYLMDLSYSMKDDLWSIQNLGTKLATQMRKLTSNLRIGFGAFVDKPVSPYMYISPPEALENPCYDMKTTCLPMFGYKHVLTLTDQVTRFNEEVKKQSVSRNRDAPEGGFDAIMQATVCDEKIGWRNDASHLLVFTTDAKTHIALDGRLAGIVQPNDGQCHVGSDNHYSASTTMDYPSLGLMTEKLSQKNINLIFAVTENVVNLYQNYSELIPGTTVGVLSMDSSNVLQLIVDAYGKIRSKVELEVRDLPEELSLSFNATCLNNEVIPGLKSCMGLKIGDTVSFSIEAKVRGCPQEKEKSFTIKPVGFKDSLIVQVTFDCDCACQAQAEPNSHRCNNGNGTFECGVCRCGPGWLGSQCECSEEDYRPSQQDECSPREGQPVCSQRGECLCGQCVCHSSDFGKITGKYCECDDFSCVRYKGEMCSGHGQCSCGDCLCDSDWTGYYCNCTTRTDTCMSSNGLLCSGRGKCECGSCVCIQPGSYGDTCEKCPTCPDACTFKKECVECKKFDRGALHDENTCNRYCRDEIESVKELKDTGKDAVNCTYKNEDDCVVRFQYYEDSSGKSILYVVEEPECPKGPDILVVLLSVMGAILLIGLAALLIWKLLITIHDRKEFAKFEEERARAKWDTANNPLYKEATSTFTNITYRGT

IC50 [nM]	SMILES
< 300	CC1C(CN2CCC(C(=O)O)CC2)OC(=O)N1C1CCN(c2ccncc2)CC1 (stereo not drawn) [Example 7, 1-[4-Methyl-2-oxo-3-(3,4,5,6-tetrahydro-2H-[1,4']bipyridinyl-4-yl)-oxazolidin-5-ylmethyl]-piperidine-4-carboxylic acid]
300	O=C(O)C1CCN(CC2CN(C3CCN(c4ccncn4)CC3)C(=O)O2)CC1 (stereo not drawn) [Example 8, 1-[2-Oxo-3-(1-pyrimidin-4-yl-piperidin-4-yl)-oxazolidin-5-ylmethyl]-piperidine-4-carboxylic acid]
500	O=C(O)C1CCN(CC2OC(=O)N(C3CCN(c4ccncc4)CC3)C2c2ccc(Cl)cc2)CC1 (stereo not drawn) [No. 80, 1-[4-(4-Chlorophenyl)-2-oxo-3-(3,4,5,6-tetrahydro-2H-[1,4']bipyridinyl-4-yl)-oxazolidin-5-ylmethyl]-piperidine-4-carboxylic acid]
1300	O=C(O)C1CCN(CC2OC(=O)N(C3CCN(c4ccncc4)CC3)C2c2cccc(C(F)(F)F)c2)CC1 (stereo not drawn) [No. 79, 1-[2-Oxo-3-(3,4,5,6-tetrahydro-2H-[1,4']bipyridinyl-4-yl)-4-(3-trifluoromethylphenyl)-oxazolidin-5-ylmethyl]-piperidine-4-carboxylic acid]
70	O=C(O)C1CCN(CC2CN(C3CCN(c4ccnc(NCc5ccccc5)n4)CC3)C(=O)O2)CC1 (stereo not drawn) [Example 9, 1-{3-[1-(2-Benzylamino-pyrimidin-4-yl)-piperidin-4-yl]-2-oxo-oxazolidin-5-ylmethyl}-piperidine-4-carboxylic acid]
1000	O=C(O)CC1(O)CCN(CC2CN(C3CCN(c4ccncc4)CC3)C(=O)O2)CC1 (stereo not drawn) [Example 5, {4-Hydroxy-1-[2-oxo-3-(3,4,5,6-tetrahydro-2H-[1,4']bipyridinyl-4-yl)-oxazolidin-5-ylmethyl]-piperidin-4-yl}acetic acid]
600	C[C@]1(CN2CCC(C(=O)O)CC2)CN(C2CCN(c3ccncc3)CC2)C(=O)O1 [No. 78, (5S)-1-[5-Methyl-2-oxo-3-(3,4,5,6-tetrahydro-2H-[1,4']bipyridinyl-4-yl)-oxazolidin-5-ylmethyl]-piperidine-4-carboxylic acid]

Continued, compound first:

SMILES	IC50 [nM]
O=C(O)C1CCN(CC2CN(C3CCN(c4ccncc4)CC3)C(=O)O2)CC1 (racemic) [Example 2, 1-[(rac]-2-Oxo-3-(3,4,5,6-tetrahydro-2H-[1,4']bipyridinyl-4-yl)-oxazolidin-5-ylmethyl]-piperidine-4-carboxylic acid]	< 300
O=C(O)C1CCC(O)(CC2CN(C3CCN(c4ccncc4)CC3)C(=O)O2)CC1 (stereo not drawn) [10 c)]	< 300
O=C(O)C1CCN(CC2OC(=O)N(C3CCN(c4ccncc4)CC3)C2c2ccccc2)CC1 (stereo not drawn) [10 a)]	300
O=C(O)C1CCN(C[C@H]2CN(C3CCN(c4ccncc4)CC3)C(=O)O2)CC1 [Example 1, 1-[(5S)-2-oxo-3-(3,4,5,6-tetrahydro-2H-[1,4']bipyridinyl-4-yl)-oxazolidin-5-ylmethyl]-piperidine-4-carboxylic acid]	< 300
O=C(O)C=C1CCN(CC2CN(C3CCN(c4ccncc4)CC3)C(=O)O2)CC1 (racemic) [Example 3, {1-[(rac)-2-Oxo-3-(3,4,5,6-tetrahydro-2H-[1,4']bipyridinyl-4yl)-oxazolidin-5-ylmethyl]-piperidin-4-ylidene}-acetic acid]	1400
